Data published in publication PMC4904262 (ACS Medicinal Chemistry Letters, 2016).

Tests used:
aldehyde oxidase [1] = target: T1, aldehyde oxidase (Homo sapiens, UniProt Q06278); settings: for % of parent compd remaining after 45 min: human, cytosol, 0.75 h, 1 µM
WNT signaling = test: cells; settings: 7dF3, read-out: 7dF3 IC50
in vitro [2] = settings: mouse, microsomes
in vitro [3] = settings: human, microsomes
in vitro [4] = settings: rat, microsomes
Caco-2 = settings: human
aldehyde oxidase [5] = target: T1, aldehyde oxidase; test: in vitro; settings: cytosol
[6] = mouse

T1 sequence (Q06278 whole entry): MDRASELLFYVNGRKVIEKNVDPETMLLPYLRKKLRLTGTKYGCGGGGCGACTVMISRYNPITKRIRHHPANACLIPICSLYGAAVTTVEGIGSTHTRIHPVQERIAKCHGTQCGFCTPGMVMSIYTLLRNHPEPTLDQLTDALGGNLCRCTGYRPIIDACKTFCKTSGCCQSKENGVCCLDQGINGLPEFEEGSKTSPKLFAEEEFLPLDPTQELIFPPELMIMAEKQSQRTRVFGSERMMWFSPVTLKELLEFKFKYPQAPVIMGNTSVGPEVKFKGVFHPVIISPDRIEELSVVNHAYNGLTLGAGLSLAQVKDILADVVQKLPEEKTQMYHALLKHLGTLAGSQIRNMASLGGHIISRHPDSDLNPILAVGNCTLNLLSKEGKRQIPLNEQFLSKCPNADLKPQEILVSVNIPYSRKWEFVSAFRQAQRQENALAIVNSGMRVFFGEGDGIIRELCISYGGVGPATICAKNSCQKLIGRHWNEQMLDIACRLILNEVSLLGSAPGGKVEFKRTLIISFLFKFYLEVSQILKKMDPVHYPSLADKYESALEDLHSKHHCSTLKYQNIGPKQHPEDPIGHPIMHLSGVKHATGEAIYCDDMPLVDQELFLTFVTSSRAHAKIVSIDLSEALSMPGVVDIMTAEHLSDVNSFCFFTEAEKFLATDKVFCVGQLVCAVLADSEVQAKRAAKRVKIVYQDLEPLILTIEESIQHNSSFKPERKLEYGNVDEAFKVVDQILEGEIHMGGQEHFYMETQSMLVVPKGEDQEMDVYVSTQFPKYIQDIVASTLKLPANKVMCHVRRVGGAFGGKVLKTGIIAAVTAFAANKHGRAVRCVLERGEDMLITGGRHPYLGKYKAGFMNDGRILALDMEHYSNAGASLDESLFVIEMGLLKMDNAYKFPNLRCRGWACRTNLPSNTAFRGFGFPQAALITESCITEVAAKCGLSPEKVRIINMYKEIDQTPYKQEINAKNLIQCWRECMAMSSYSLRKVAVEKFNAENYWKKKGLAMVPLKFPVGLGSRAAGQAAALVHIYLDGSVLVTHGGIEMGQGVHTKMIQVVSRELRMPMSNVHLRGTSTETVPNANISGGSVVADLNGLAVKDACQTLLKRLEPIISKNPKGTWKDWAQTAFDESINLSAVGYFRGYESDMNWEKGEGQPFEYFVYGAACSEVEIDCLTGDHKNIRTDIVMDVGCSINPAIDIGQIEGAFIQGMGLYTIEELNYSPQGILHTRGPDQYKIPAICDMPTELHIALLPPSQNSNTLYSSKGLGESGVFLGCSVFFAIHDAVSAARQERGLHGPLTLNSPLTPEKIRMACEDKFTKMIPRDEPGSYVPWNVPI

Row | SMILES | % of parent compd remaining after 45 min (aldehyde oxidase [1]) [%] | microsomal CLint at 1 µM (in vitro [2]) [µL/min/mg] | microsomal CLint at 1 µM (in vitro [3]) [µL/min/mg] | microsomal CLint at 1 µM (in vitro [4]) [µL/min/mg] | Caco-2 ER (Caco-2) | Caco-2 PappA-B (Caco-2) | further results
1 | COC1CN(C(=O)c2ccc3cncc(-c4ccc5nn(CC(C)(C)O)cc5c4)c3c2)C1 [Compound 44] | 0 |  |  |  |  |  | IC50 (WNT signaling): 92.7 ± 41.1 nM
2 | CNC(=O)c1ccc2cncc(-c3ccc(-c4cnn(C)c4)cc3)c2c1 [Compound 27] | 0 | 275 | 27 |  |  |  | 
3 | Cn1cc(-c2ccc(-c3cnc(N)c4ccc(C(=O)N5CCCC5)nc34)cc2)cn1 [Compound 56] |  | 81 | 30 | 63 | 5.0 | 30 × 10^–6 cm/s | 
4 | Cn1cc(-c2ccc(-c3cnc(N)c4ccc(C(=O)N5CC(F)(F)C5)nc34)cc2)cn1 [Compound 54] |  | 107 | 25 | 19 | 1.8 | 23.9 × 10^–6 cm/s | 
5 | Cn1cc(-c2ccc(-c3cncc4ccc(C(=O)N5CCC5)nc34)cc2)cn1 [Compound 12] |  | 143 | 38 | 85 |  |  | 
6 | Cn1cc(-c2ccc(-c3cnc(N)c4ccc(C(=O)N5CCC5)cc34)cc2)cn1 [Compound 58] |  | 23 |  | 11 | 5.5 | 27.2 × 10^–6 cm/s | microsomal CLint (in vitro [3]): < 10 µL/min/mg
7 | Cn1cc(-c2ccc(-c3cnc(N)c4ccc(C(=O)N5CC(F)(F)C5)cc34)cc2)cn1 [Compound 61] |  | 78 | 123 | 17 | 3.8 | 39.7 × 10^–6 cm/s | 
8 | COC1CN(C(=O)c2ccc3cncc(-c4ccc(-c5cnn(C)c5)cc4)c3n2)C1 [Compound 13] | 0 | 95 | 35 | 327 |  |  | AO substrate (Enzyme assay) (aldehyde oxidase [1]): Yes
9 | Cn1cc(-c2ccc(-c3cncc4ccc(C(=O)N5CC(F)(F)C5)cc34)cc2)cn1 [Compound 30] | 0 | 321 | 470 | 207 |  |  | 
10 | Cn1cc(-c2ccc(-c3cncc4ccc(-c5nccn5C)nc34)cc2)cn1 [Compound 26] |  | 661 | 335 |  |  |  | CLint scaled at 1 µM (aldehyde oxidase [5]): > 1000 mL/min/kg; microsomal CLint (in vitro [4]): > 1000 µL/min/mg; AO substrate (Enzyme assay) (aldehyde oxidase [1]): Yes
11 | Cn1cc(-c2ccc(-c3cncc4ccc(C(N)=O)nc34)cc2)cn1 [Compound 9] |  | 155 | 34 |  |  |  | 
12 | Cn1cc(-c2ccc(-c3cncc4ccc(C(=O)N5CCNCC5)nc34)cc2)cn1 [Compound 17] |  | 15 | 36 | 525 |  |  | Vss ([6]; Balb/C, in vivo): 5.8 L/kg; in vivo clearance [6]: exceeded liver blood flow
13 | Cn1cc(-c2ccc(-c3cnc(N)c4ccc(C(=O)N5CC(C)(F)C5)cc34)cc2)cn1 [Compound 62] |  | 43 | 76 | 28 | 3.4 | 25.8 × 10^–6 cm/s | 
14 | CNC(=O)c1ccc2c(N)ncc(-c3ccc4c(c3)CS(=O)(=O)N4)c2n1 [Compound 37] | 100 |  |  |  |  |  | IC50 (WNT signaling): 9600 ± 2430 nM
15 | Cn1cc(-c2ccc(-c3cncc4ccc(C(=O)N5CCOCC5)nc34)cc2)cn1 [Compound 16] |  | 83 | 41 | 23 |  |  | 
16 | CNC(=O)c1ccc2cncc(-c3ccc4c(cnn4C)c3)c2n1 [Compound 5] |  | 444 | 116 | 699 |  |  | 
17 | Cn1cc(-c2ccc(-c3cnc(N)c4ccc(C(=O)NC5CC5)cc34)cc2)cn1 [Compound 64] |  | 39 | 16 | 22 | 13.2 | 32.5 × 10^–6 cm/s | AO substrate (Enzyme assay) (aldehyde oxidase [1]): No
18 | COC1CN(C(=O)c2ccc3cncc(-c4ccc5c(cnn5CC(C)(C)O)c4)c3c2)C1 [Compound 43] | 2 |  |  |  |  |  | IC50 (WNT signaling): 921 ± 148 nM
19 | COC1(C)CN(C(=O)c2ccc3c(N)ncc(-c4ccc(-c5cnn(C)c5)cc4)c3c2)C1 [Compound 60] |  | 26 | 64 | 17 | 7.2 | 25.2 × 10^–6 cm/s | 
20 | CC(C)(O)Cn1cc(-c2ccc(-c3cncc4ccc(C(N)=O)cc34)cc2)cn1 [Compound 42] | 7 |  |  |  |  |  | IC50 (WNT signaling): 0.6 ± 0.2 nM
21 | Cn1cc(-c2ccc(-c3cncc4ccc(N5CCOC5=O)cc34)cc2)cn1 [Compound 34] |  | 380 | 66 | 102 |  |  | AO substrate (Enzyme assay) (aldehyde oxidase [1]): Yes
22 | COC1CN(C(=O)c2ccc3cncc(-c4ccc(-c5cnn(C)c5)cc4)c3c2)C1 [Compound 29] | 1 | 403 | 56 | 337 |  |  | AO substrate (Enzyme assay) (aldehyde oxidase [1]): Yes
